Key:
[1] = tested on: HeLa cells transfected with the Q79-GFP plasmid; assay: Cell death by receptor-mediated pathways (TNF-α or anti-FasR with cycloheximide); type: cell-based; details: Congo red 100 μM, 72 hours
Method: FIG. 4B is a graph showing the effect of Congo red (CR) on the induction of cell death by receptor-mediated pathways. HeLa cells transfected with a Q79-GFP plasmid were treated with TNF-a or anti-FasR and cycloheximide (CHX), in the presence or absence of CR (100 μM). The amount of cell death was measured 72 hours after transfection.
The effect of Congo red on the induction of cell death by receptor-mediated pathways was also evaluated. Once again, HeLa cells were transfected with the Q79-GFP plasmid, and six hours later were administered Tumor Necrosis Factor-alpha (TNF-α) or anti-FasR in the presence of cycloheximide (CHX). The samples were then incubated with or without Congo red (100 μM). The amount of cell death was measured 72 hours after exposure to the compounds (FIG. 4B).

[2] = tested on: HeLa cells transfected with Q79-GFP; assay: Cellular ATP levels (ATPLite) in Q79 expressing HeLa cells; type: cell-based
Method: We also investigated whether Congo red prevented other cellular events during cell death, including ATP depletion, caspase activation, and protein synthesis inhibition. HeLa cells were transfected with the Q79-GFP construct. Forty-eight hours later, the viability of cells expressing expanded polyglutamine repeats was determined by measuring cellular ATP levels, suing an ATPLite™ kit, according to the directions provided by the manufacturer (Packard, Co.) (FIG. 5A).
To determine the effect of Congo red (100 μM) on polyglutamine-induced cell toxicity. HeLa cells were transiently transfected with Q79-GFP, and six hours later were administered various concentrations of Congo red. Cell viability was assayed 72 hours after transfection, by measuring the level of ATP in each sample. ATP levels in cells expressing Q79 were determined by using the ATPLite™ kit as recommended by the manufacturer (Packard, Inc.). Briefly, cells were transfected with Q79 and treated 6 hours after transfection. Forty-two hours later, the levels of ATP were determined. (FIG. 5C).
A high-throughput method for identifying compounds that decrease cell toxicity or death has been designed. In this method, cells were seeded at 2×10^5 cells in 100 mm dishes. The next day the plated cells were transiently transfected with a plasmid encoding an expanded polyglutamine repeat, for example, Q79. Three hours later, transfection efficiency was assessed. Plates containing cells having 10-20% transfection efficiency at this 3 hour time point were trypsinized and re-plated at 600 or at 1500 cells per well in 384 well plates with clear bottoms. After 6 hours, the candidate compounds were added to the multi-well plates. The cells were cultured for 48 hours and ATP levels were determined using an ATPLite™ kit. Data was then expressed in either arbitrary units, or as relative ratio of ATP levels in Q79 transfected cells in compound-treated relative to vehicle-treated samples.
Derivatives of Congo red (commercially available from Sigma/Aldrich) were tested for their ability to alter cell toxicity and death by measuring ATP depletion and luciferase expression. The assay was carried out as described above for the high-throughput identification of compounds. Briefly, HeLa cells were transiently transfected with a Q79/GFP plasmid and were subsequently treated with various concentrations of Congo red, or 25 μM of each of Direct Orange 6, Direct Red 1, Direct Orange 1, Direct Black 51, Direct Orange 8, Direct Yellow 26, Direct Yellow 28, or Direct Blue 158. Drug treatment continued for 6 hours and then 48 hours later, ATP levels were measured in these cells and compared to the ATP levels in cells that were transiently transfected with GFP only, and also received the compound.

caspase-8 = assay: Activation of caspase-8 by Western blot; type: cell-based; details: HeLa, HA-tagged Q79-GFP
Method: Expanded polyglutamine repeats recruit and activate caspase-8 (Sanchez et al., supra). We tested if the treatment of cells expressing expanded polyglutamine repeats with Congo red inhibits the activation of caspase-8. HeLa cells were transfected with a hemagglutinin-tagged (HA) […]-GFP construct in the presence or absence of Congo red and the cell lysates were analyzed by Western blot analysis for the expression of caspase-8, or for expression of HA. The appearance of a 45 kilodalton active caspase-8 fragment was detected at 24 hours after transfection, which was before significant loss of cytoplasmic membrane integrity and morphological changes occurred, and near the time of ATP loss (FIG. 5E).

[3] = tested on: semi-purified Q79 oligomers from HeLa cells expressing transfected Q79-GFP; assay: Disassembly of semi-purified Q79 oligomers; type: biochemical; details: 25 μM (FIG. 6C); fluorescence microscopy
Method: FIG. 6C is a set of scanned images of the disruption of pre-formed Q79-GFP oligomers by Congo red, minocycline, or rolitetracycline. Lysates from Q79-GFP expressing cells were treated with 25 μM of the indicated compound, and visualized by fluorescence microscopy.
To determine if binding to polyglutamine is sufficient to inhibit the aggregate formation, we compared the ability of minocycline, rolitetracycline, iota carrageenan, dextran, chrysamine G, and Congo red to bind to 81-repeat polyglutamine polypeptide by the chemical absorption assay described above (FIG. 6B). […] To examine the relationship of compound binding and its ability to dissolve expanded polyglutamine aggregates, we tested their effects on semi-purified Q79 oligomers from HeLa cells expressing transfected Q79-GFP, viewed using a microscope.

[4] = tested on: polyglutamine aggregates of HA-Q79-GFP expressing cells; assay: Filter assay (0.2 μm acetate filter); type: cell-based
Method: FIG. 6D is a scanned image of a filter showing the effect of Congo red on pre-formed oligomers as assessed by the filter assay described herein. Cells were treated with PBS or 100 μM of Congo red 6 hours after transfection with Q79-GFP. Lysates from these cells were obtained 42 hours later, and passed through a 0.2 micron pore filter. In addition, Q79 aggregates were treated with Congo red after they were recovered from cells to test for disruption of pre-formed aggregates.
FIG. 7C is an image of an immunoblot of lysates from Q79 expressing cells that were treated with PBS or Congo red during or after transfection, as indicated in the Figure and passed through a 0.2 micron filter. Endogenous caspase-8 and the adapter protein FADD were trapped in the filter in cell lysates containing oligomerized polyglutamine repeats, and probed using a caspase-8 or FADD antibody.
To further confirm the ability of Congo red to inhibit the formation of polyglutamine aggregates, as well as to disrupt preformed aggregates, we analyzed the state of polyglutamine aggregation by examining equal aliquots of total lysates from Congo-red- or vehicle-treated HA-Q79-GFP expressing cells, or the lysates that were treated with Congo red or vehicle after cell lysis. The cell lysates were passed through a 0.2 μm acetate filter and then visualized by immunostaining with anti-HA antibody (FIG. 6D).

## Nc1c(/N=N/c2ccc(-c3ccc(/N=N/c4cc(S(=O)(=O)O)c5ccccc5c4N)cc3)cc2)cc(S(=O)(=O)O)c2ccccc12 [Congo red, diphenyldiazo-bis-alpha-napthylaminesulfonate]
[1]
  induction of cell death by receptor-mediated pathways: does not alter the induction of cell death by receptor-mediated pathways
[2]; 25 or 50 μM, Q79-GFP
  protection from polyglutamine repeat-induced cell death (ATP levels): very effective at protecting cells
[2]; HA-tagged Q79-GFP, caspase-8 experiment
  ATP loss: significantly inhibited ATP loss
[2]; Q79-GFP, treated six hours after transfection
  concentration at which protection from polyglutamine repeat-induced cell death begins (ATP levels): 12 µM
caspase-8
  appearance of active caspase-8 (45 kilodalton fragment): completely inhibited the appearance of active caspase-8
[3]
  disassembly of pre-formed poly-Q oligomers: caused the disassembly of pre-formed poly-Q oligomers
[4]; cell lysates treated with Congo red after cell lysis
  polyglutamine aggregates retained by 0.2 μm filter, lysates treated: undetectable
[4]; cells treated with Congo red (100 μM) 6 hours after transfection
  polyglutamine aggregates retained by 0.2 μm filter, cells treated: undetectable
[4]; lysates of Q79 expressing cells
  FADD and caspase-8 in a complex retained by 0.2 μm filter: not in Congo red-treated lysates
